Data: US4863902A, “Treatment of cancer” (Wakunaga Seiyaku Kabushiki Kaisha, priority 1985, dated 1989)

What was measured:
[1] = system: Colon adenocarcinoma 26 (mouse colon adenocarcinoma); assay: Tumor weight of transplanted Colon adenocarcinoma 26 in BALB/c mice; type: in vivo; conditions: Table 5, 5-FU 150 mg/Kg, hEGF-II 100 μg/Kg subcutaneous, average ± standard error of 6-12 mice
Experimental: After BALB/c mice were preliminarily fed in a thermostat (23°±0.5° C.), humidistat (60±5%) room for 1 week, those which appear to be healthy weighing 18-20 g were provided for the present experiment in 6-12 mice per 1 group.
(§1) Colon adenocarcinoma 26 (mouse colon adenocarcinoma) was minced into pieces and about 0.1 to 0.2 ml thereof was transplanted subcutaneously on the right side of mouse abdomen by a cell transplanting needle (trocker). Six days after transplantation, the size of tumor, namely longer diameter (a mm) and shorter diameter (b mm) of tumor were measured and the tumor weight was calculated according to the formula shown below [Instruction 14 (NCI) 1980].
(§2) Tumor weight (mg)=ab^2 /2
Before carrying out experiments, tumor weights were measured immediately before administration of the compounds and the mice were grouped into 3 groups by use of random numbers so that there may be no difference in average value of the tumor weights on initiation of experiments between the respective groups to make even the average values of tumor weights of the respective groups, and thereafter the compounds were administered to the respective groups.
In this FIGURE, the axis of abscissa indicates the experimental days with the day of compound administration being the day 1, and the axis of ordinate indicates tumor cell growth ratio which is the ratio of the tumor weight after elapse of the respective days relative to the tumor weight on the day 1 as being 100%.

[2] = system: Colon adenocarcinoma 38 (mouse colon adenocarcinoma); assay: Tumor weight of transplanted Colon adenocarcinoma 38 in C57BL/6 mice; type: in vivo; conditions: for Tumor weight (day 1 = 100): 5-FU 150 mg/Kg
Experimental: as §1, with “38” for “26”, “Eleven” for “Six”
as §2
In the Table, days indicate the experimental days with the day of compound administration being as the day 1, and the tumor weight immediately before administration of compound of day 1 is made 100. The respective values show the average value ± standard error of case numbers of 10 to 20, in the Table, the marks of (*), * and *** indicate the statistical significance difference of the combined administration group relative to the 5-FU single administration group (the definition of P is as defined above).

[3] = system: P388/5-FU (mouse leukemia resistant to 5-FU); assay: Tumor weight of solid tumor of 5-FU resistant mouse leukemia in CDF1 mice; type: in vivo; conditions: 5-FU 150 mg/Kg
From the text: CDF1 strain male mice were employed. The feeding conditions, etc., were the same as in Experimental Example 1.
Of P388 (mouse leukemia), the strain having chemical resistance to 5-FU (P388/5-FU) was previously grown in the abdomen of CDF1 mouse. Eight days after transplantation into the abdomen, ascites (containing tumor cells) were collected, diluted with a liquid medium and transplanted subcutaneously at the axilla of mouse in 3×10^6 cells per mouse. Eight days after transplantation, the size of tumor was measured according to the same method as in Example 1 (Colon 26) and the tumor weight was calculated.
The grouping operation of mouse on initiation of experiments was conducted in the same manner as in Experimental Example 1. As for administration of compounds, the same procedure as in Experimental Example 1 was used. However, the administration was effected twice on the day 1 and the day 3.

[4] = system: mouse ovarian tumor M5076; assay: Tumor weight of solid tumor of mouse ovarian tumor in BDF1 mice; type: in vivo; conditions: Table 10, 5-FU 150 mg/Kg, hEGF, [Leu^21 ]-hEGF or hEGF-II 100 μg/Kg subcutaneous, average ± standard error
Experimental: BDF1 male mice were employed. The feeding conditions were the same as in Experimental Example 1.
Mouse ovarian tumor M5076 was transplanted subcutaneously at the axialla of mouse in 1-2×10^6 cells per mouse. 12 days after transplantation, the size of tumor was measured according to the same method as in Experimental Example 1 (Colon 26) and the tumor weight was calculated.
The grouping operation on initiation of Experiments was conducted in the same manner as in Experimental Example 1. The compounds were administered in the same manner as in Experimental Example 9.
The experiment was carried out in the samme manner as in Experimental Examples 1, 7 and as in Experimental Example 17 for others.

[5] = Body weight (minus tumor weight) of Colon 26 bearing mice; type: in vivo, mouse; conditions: Experimental Example 5; 150 mg/Kg 5-FU, 100 μg/Kg hEGF subcutaneous
Experimental: That is, in Experimental Example 1, with the value of the body weight of the experimental animal immediately before administration of the drug from which the tumor weight is detracted as being 100, the ratio of the value of the total body weight of the experimental animal from which the tumor weight is detracted on the respective days after administration of the drug relative to this weight was calculated to obtain the results shown in FIG. 4. The symbols in the Figure are the same as in Experimental Example 1.

O=c1[nH]cc(F)c(=O)[nH]1 [5-FU, 5-fluorouracil]
Tumor weight (day 1 = 100) ([1]; day 2): 121.1 ± 9.6 | Tumor weight (day 1 = 100) ([1]; day 3): 120.4 ± 7.1 | Tumor weight (day 1 = 100) ([1]; day 4): 124.0 ± 9.6 | Tumor weight (day 1 = 100) ([1]; day 5): 122.5 ± 10.7 | Tumor weight (day 1 = 100) ([1]; day 6): 129.7 ± 11.5 | Tumor weight (day 1 = 100) ([1]; day 7): 156.8 ± 14.1 | Tumor weight (day 1 = 100) ([2]; Table 1, day 2, hEGF 100 μg/Kg subcutaneous on day 1, average ± standard error): 106.3 ± 31.8 | Tumor weight (day 1 = 100) ([2]; Table 1, day 4, hEGF 100 μg/Kg subcutaneous on day 1, average ± standard error): 84.5 ± 7.0 | Tumor weight (day 1 = 100) ([2]; Table 1, day 5, hEGF 100 μg/Kg subcutaneous on day 1, average ± standard error): 75.4 ± 10.3 | Tumor weight (day 1 = 100) ([2]; Table 1, day 6, hEGF 100 μg/Kg subcutaneous on day 1, average ± standard error): 86.2 ± 9.5 | Tumor weight (day 1 = 100) ([2]; Table 1, day 7, hEGF 100 μg/Kg subcutaneous on day 1, average ± standard error): 121.1 ± 13.0 | Tumor weight (day 1 = 100) ([2]; Table 1, day 8, hEGF 100 μg/Kg subcutaneous on day 1, average ± standard error): 147.3 ± 16.0 | Tumor weight (day 1 = 100) ([2]; Table 1, day 9, hEGF 100 μg/Kg subcutaneous on day 1, average ± standard error): 210.9 ± 22.9 | Tumor weight (day 1 = 100) ([2]; Table 11, day 2, FGF 100 μm/10 ml/Kg subcutaneous, average ± standard error of 6-8 mice): 102.6 ± 6.7 | Tumor weight (day 1 = 100) ([2]; Table 11, day 3, FGF 100 μm/10 ml/Kg subcutaneous, average ± standard error of 6-8 mice): 99.7 ± 7.2 | Tumor weight (day 1 = 100) ([2]; Table 11, day 4, FGF 100 μm/10 ml/Kg subcutaneous, average ± standard error of 6-8 mice): 94.9 ± 8.7 | Tumor weight (day 1 = 100) ([2]; Table 11, day 5, FGF 100 μm/10 ml/Kg subcutaneous, average ± standard error of 6-8 mice): 158.6 ± 22.8 | Tumor weight ratio(%) ([2]; Table 12, day 4 after compound administration, weight before administration = 100, Tegafur 400, 5-FU 150, Mitomycin-C 5, Cisplatin 5 mg/Kg, hIGF-II 50 μg/Kg subcutaneous, average ± standard error of 8-10 mice): 84.5 ± 7.0% | Tumor weight ratio(%) ([2]; Table 14, hTGFα 100 μg/10 ml/Kg with 5-FU, Tegafur, Mitomycin-C, Adriamycin or Cisplatin, as described for Table 12): 84.6 ± 7.0% | Tumor weight ratio(%) ([2]; Table 15, day 4 after compound administration, hTGFβ and hEGF 100 μg/Kg with each compound having antitumor action): 103.3 ± 15.4% | Tumor weight % (average value ± standard error) ([2]; Table 20, 4 days after administration of 5-FU, 5-FU single subcutaneous): 93.9 ± 6.7% | Tumor weight (day 1 = 100) ([3]; Table 2, day 2, hEGF 100 μg/Kg subcutaneous on day 1 and day 3, average ± standard error of 9 mice): 126.2 ± 5.5 | Tumor weight (day 1 = 100) ([3]; Table 2, day 3, hEGF 100 μg/Kg subcutaneous on day 1 and day 3, average ± standard error of 9 mice): 232.7 ± 15.9 | Tumor weight (day 1 = 100) ([3]; Table 2, day 4, hEGF 100 μg/Kg subcutaneous on day 1 and day 3, average ± standard error of 9 mice): 280.0 ± 31.7 | Tumor weight (day 1 = 100) ([3]; Table 3, day 2, [Leu^21 ]-hEGF or hEGF-II 100 μg/Kg subcutaneous on day 1 and day 3, average ± standard error): 121.2 ± 10.5 | Tumor weight (day 1 = 100) ([3]; Table 3, day 3, [Leu^21 ]-hEGF or hEGF-II 100 μg/Kg subcutaneous on day 1 and day 3, average ± standard error): 232.7 ± 15.9 | Tumor weight (day 1 = 100) ([3]; Table 3, day 4, [Leu^21 ]-hEGF or hEGF-II 100 μg/Kg subcutaneous on day 1 and day 3, average ± standard error): 280.0 ± 31.7 | Tumor weight (day 1 = 100) ([4]; day 2): 114.7 ± 7.5 | Tumor weight (day 1 = 100) ([4]; day 3): 115.2 ± 8.3 | Tumor weight (day 1 = 100) ([4]; day 4): 134.6 ± 8.9 | Tumor weight (day 1 = 100) ([4]; day 5): 187.3 ± 19.3 | Tumor weight (day 1 = 100) ([4]; day 6): 230.1 ± 29.4 | body weight reduction inhibiting effect (body weight minus tumor weight, FIG. 4) [5]: no inhibiting effect of weight reduction could be recognized
